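Tested at 5 concentrations; 48 h exposure; 96-well plates; endpoints linearly interpolated, else capped at highest concentration. Abbreviation: GI50, concentration required for 50% inhibition of growth.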 Activity calls are given as the source filed them. No stated cut-off is given here; in the data, active = GI50 up to about 1.1 µM and inactive = higher. Where a SMILES comes first, the peptide text is derived from it. [ ]: non-standard residue; d: D form. The star is where a group is joined. ξ: configuration not given here. NMeF = CN[C@@H](Cc1ccccc1)C(=O)O; NMeV = CN[C@H](C(=O)O)C(C)C; ξNMeN = CNC(CC(N)=O)C(=O)O; NMeA = CN[C@@H](C)C(=O)O; ξNMeV = CNC(C(=O)O)C(C)C; Boc = CC(C)(C)OC(=O)*
Key:
Assay in all cases: NCI tumour cell line growth inhibition, 48 h
ACHN = tested on: ACHN
NCI-H460 = tested on: NCI-H460
NCI-H23 = tested on: NCI-H23
Malme-3M = tested on: Malme-3M
U-251 = tested on: U-251
SK-MEL-2 = tested on: SK-MEL-2
CAKI-1 = tested on: CAKI-1
T47D = tested on: T47D
DU-145 = tested on: DU-145
SF-539 = tested on: SF-539
OVCAR-8 = tested on: OVCAR-8
MCF7 = tested on: MCF7
COLO 205 = tested on: COLO 205
SF-268 = tested on: SF-268
MDA-MB-435 = tested on: MDA-MB-435
DLD-1 = tested on: DLD-1
HOP-62 = tested on: HOP-62
UO-31 = tested on: UO-31
SNB-75 = tested on: SNB-75
SW-620 = tested on: SW-620

SMILES	GI50 (ACHN)	GI50 (NCI-H460)	GI50 (NCI-H23)	GI50 (Malme-3M)	GI50 (U-251)	GI50 (SK-MEL-2)	GI50 (CAKI-1)	GI50 (T47D)	GI50 (DU-145)	GI50 (SF-539)	GI50 (OVCAR-8)	GI50 (MCF7)	GI50 (COLO 205)	GI50 (SF-268)	GI50 (MDA-MB-435)	GI50 (DLD-1)	GI50 (HOP-62)	GI50 (UO-31)	GI50 (SNB-75)	GI50 (SW-620)
COc1cccc2c1C(=O)c1c(O)c3c(c(O)c1C2=O)C[C@@](O)(C(C)=O)C[C@@H]3OC1CC(N(Cc2ccccc2)Cc2ccccc2)C(O)C(C)O1 (stereo not given in full)	0.51 µM (active)	0.653 µM (active)	18.6 µM (inactive)	13.3 µM (inactive)	13.4 µM (inactive)	16.8 µM (inactive)	6.03 µM (inactive)	11.9 µM (inactive)	14.1 µM (inactive)	10.9 µM (inactive)	4.89 µM (inactive)	12.4 µM (inactive)	14.6 µM (inactive)	14.2 µM (inactive)	4.53 µM (inactive)	10.1 µM (inactive)	18.8 µM (inactive)	15 µM (inactive)	30.1 µM (inactive)	4.69 µM (inactive)
O=C1/C(=C/c2ccc(O)c(O)c2)CCC/C1=C\c1ccc(O)c(O)c1	2.69 µM (inactive)	3.45 µM (inactive)	2.76 µM (inactive)	2.46 µM (inactive)	2.92 µM (inactive)	3.42 µM (inactive)	3.68 µM (inactive)	3.87 µM (inactive)	4.5 µM (inactive)	2.41 µM (inactive)	2.07 µM (inactive)	5.16 µM (inactive)	7.03 µM (inactive)	3.02 µM (inactive)	2.91 µM (inactive)	2.68 µM (inactive)	4.13 µM (inactive)	2 µM (inactive)	3.4 µM (inactive)	2.45 µM (inactive)
COC(=O)[C@H](C)N(C)C(=O)C(CC(N)=O)N(C)C(=O)[C@H](Cc1ccccc1)N(C)C(=O)[C@@H]1CCCN1C(=O)[C@H](C(C)C)N(C)C(=O)C(C(C)C)N(C)C(=O)[C@@H](NC(=O)OC(C)(C)C)C(C)C (stereo not given in full) (Boc-V[ξNMeV][NMeV]P[NMeF][ξNMeN][NMeA]-OMe)	> 50 µM (inactive)	> 50 µM (inactive)	> 50 µM (inactive)	> 75 µM (inactive)	> 50 µM (inactive)	> 50 µM (inactive)	> 50 µM (inactive)	> 50 µM (inactive)	> 50 µM (inactive)	> 50 µM (inactive)	48.6 µM (inactive)	> 50 µM (inactive)	> 50 µM (inactive)	41.7 µM (inactive)	> 50 µM (inactive)	43.7 µM (inactive)	> 50 µM (inactive)	> 50 µM (inactive)	44 µM (inactive)	> 50 µM (inactive)
